Results taken from US11130756B2, “[1,2,4]Triazolo[4,3-A]pyridinyl substituted indole compounds” (BRISTOL-MYERS SQUIBB COMPANY, priority 2017, dated 2021).

Key:
Type in all cases: cell-based
[1] = target: T1, human TLR7 (Homo sapiens, UniProt Q9NYK1); test: TLR7 inhibition reporter assay (HEK-Blue, SEAP); details: HEK-Blue cells overexpressing human TLR7, gardiquimod 7.5 μM, 22 hour incubation
T1 construct: host or cells: HEK-Blue cells
T1 sequence (Q9NYK1 27-1049): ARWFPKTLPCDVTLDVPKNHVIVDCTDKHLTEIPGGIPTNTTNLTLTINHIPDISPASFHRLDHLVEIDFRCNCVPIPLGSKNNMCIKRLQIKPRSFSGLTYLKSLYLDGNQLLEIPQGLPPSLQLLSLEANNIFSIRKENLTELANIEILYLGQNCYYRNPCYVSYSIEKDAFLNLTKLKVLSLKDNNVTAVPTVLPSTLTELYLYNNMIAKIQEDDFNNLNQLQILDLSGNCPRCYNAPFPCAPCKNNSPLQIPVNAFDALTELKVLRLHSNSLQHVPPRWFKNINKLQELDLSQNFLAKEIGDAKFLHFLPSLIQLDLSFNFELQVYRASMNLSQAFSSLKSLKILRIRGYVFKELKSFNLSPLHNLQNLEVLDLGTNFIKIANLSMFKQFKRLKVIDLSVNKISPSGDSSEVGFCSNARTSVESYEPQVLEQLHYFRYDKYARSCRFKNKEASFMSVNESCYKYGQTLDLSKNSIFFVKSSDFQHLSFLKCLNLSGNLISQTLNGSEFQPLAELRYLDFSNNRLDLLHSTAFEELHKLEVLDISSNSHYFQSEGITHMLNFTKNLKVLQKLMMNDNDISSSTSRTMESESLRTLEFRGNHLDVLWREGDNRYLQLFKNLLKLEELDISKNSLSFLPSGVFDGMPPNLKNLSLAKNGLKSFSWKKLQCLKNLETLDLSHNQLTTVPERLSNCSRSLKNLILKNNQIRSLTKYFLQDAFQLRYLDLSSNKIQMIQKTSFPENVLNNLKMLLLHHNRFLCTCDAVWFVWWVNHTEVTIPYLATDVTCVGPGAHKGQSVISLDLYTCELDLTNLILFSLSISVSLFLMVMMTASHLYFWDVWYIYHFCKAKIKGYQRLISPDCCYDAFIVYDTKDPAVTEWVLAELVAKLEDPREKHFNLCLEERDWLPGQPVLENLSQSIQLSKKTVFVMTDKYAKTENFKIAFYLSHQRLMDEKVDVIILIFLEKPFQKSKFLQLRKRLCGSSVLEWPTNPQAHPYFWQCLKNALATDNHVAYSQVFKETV
How it was run: (§1)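 Compound treatment: 30 min, RT, 0.05 nM–50 μM final. Agonist: TLR7 gardiquimod 7.5 μM; TLR8 R848 15.9 μM; TLR9 ODN2006 5 nM. Incubation 22 h, 37 °C, 5% CO2. Readout SEAP, HEK-Blue Detection.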

[2] = target: T2, human TLR8 (Homo sapiens, UniProt Q9NR97); test: TLR8 inhibition reporter assay (HEK-Blue, SEAP); details: HEK-Blue cells overexpressing human TLR8, R848 15.9 μM, 22 hour incubation
T2 construct: host or cells: HEK-Blue cells
T2 sequence (Q9NR97 27-1041): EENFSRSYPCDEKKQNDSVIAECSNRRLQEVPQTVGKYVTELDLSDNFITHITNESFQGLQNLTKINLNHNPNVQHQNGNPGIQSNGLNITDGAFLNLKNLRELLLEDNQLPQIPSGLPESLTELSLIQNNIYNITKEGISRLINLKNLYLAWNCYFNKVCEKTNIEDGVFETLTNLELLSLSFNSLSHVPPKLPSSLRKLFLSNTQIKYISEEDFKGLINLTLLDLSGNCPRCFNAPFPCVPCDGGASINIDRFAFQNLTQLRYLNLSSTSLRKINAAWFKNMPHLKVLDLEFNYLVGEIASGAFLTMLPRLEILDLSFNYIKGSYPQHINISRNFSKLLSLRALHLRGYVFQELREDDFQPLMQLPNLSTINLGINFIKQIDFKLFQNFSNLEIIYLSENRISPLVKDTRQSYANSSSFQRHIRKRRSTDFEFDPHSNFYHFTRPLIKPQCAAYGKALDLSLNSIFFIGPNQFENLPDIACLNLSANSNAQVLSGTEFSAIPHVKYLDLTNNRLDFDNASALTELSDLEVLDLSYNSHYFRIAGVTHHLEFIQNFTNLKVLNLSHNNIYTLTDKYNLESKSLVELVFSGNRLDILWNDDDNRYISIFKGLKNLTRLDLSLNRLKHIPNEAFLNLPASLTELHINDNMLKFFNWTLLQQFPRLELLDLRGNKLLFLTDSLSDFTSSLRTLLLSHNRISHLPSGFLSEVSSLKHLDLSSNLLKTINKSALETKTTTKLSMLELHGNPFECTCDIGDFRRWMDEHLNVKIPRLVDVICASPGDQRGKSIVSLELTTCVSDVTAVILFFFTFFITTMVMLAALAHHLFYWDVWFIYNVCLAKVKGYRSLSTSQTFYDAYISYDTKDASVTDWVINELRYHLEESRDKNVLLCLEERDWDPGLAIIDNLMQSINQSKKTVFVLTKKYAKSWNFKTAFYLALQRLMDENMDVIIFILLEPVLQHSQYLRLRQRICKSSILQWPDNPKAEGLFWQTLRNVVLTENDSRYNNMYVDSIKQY
How it was run: as §1

[3] = target: T3, human TLR9 (Homo sapiens, UniProt Q9NR96); test: TLR9 inhibition reporter assay (HEK-Blue, SEAP); details: HEK-Blue cells overexpressing human TLR9, ODN2006 5 nM, 22 hour incubation
T3 construct: host or cells: HEK-Blue cells
T3 sequence (Q9NR96 26-1032): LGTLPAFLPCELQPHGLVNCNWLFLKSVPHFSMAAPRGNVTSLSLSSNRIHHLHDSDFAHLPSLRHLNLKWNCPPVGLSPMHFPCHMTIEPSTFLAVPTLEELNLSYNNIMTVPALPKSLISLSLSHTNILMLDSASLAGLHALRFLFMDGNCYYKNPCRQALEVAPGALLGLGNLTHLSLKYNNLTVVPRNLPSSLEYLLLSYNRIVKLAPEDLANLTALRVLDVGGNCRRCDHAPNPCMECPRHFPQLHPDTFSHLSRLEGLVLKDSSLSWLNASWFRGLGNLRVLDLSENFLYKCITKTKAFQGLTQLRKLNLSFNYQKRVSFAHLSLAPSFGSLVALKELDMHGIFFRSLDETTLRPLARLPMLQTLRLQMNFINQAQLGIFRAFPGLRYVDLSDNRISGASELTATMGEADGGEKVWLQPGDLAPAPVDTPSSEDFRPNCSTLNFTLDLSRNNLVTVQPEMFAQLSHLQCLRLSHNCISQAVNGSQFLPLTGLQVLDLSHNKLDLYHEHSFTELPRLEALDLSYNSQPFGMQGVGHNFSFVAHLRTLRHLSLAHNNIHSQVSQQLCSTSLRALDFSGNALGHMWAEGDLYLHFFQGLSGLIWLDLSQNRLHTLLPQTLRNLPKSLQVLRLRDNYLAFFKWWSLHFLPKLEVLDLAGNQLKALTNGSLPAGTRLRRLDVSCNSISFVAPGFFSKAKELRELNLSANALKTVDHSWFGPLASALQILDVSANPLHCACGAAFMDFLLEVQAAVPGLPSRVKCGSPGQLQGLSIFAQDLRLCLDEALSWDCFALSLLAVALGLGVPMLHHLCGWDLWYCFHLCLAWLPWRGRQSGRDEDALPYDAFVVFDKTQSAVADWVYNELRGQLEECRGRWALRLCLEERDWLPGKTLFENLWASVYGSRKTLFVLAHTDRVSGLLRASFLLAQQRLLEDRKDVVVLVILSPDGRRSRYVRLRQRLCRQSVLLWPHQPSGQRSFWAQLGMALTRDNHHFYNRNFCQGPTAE
How it was run: as §1

| Structure (SMILES) | IC50 [1] [nM] | IC50 [2] [nM] | IC50 [3] [nM] |
| --- | --- | --- | --- |
| CNC(=O)CN1CCC(c2ccc3[nH]c(-c4ccc5nnc(C)n5c4)c(C(C)C)c3c2)CC1 [Example 17, 2-(4-(3-isopropyl-2-(3-methyl-[1,2,4]triazolo[4,3-a]pyridin-6-yl)-1H-indol-5-yl)piperidin-1-yl)-N-methylacetamide] | 44.7 | 31.4 | 2770 |
| Cc1cc(-c2[nH]c3ccc(C4CCN(C5CCOCC5)CC4)cc3c2C(C)C)cn2cnnc12 [Example 69, 6-(3-isopropyl-5-(1-(tetrahydro-2H-pyran-4-yl)piperidin-4-yl)-1H-indol-2-yl)-8-methyl-[1,2,4]triazolo[4,3-a]pyridine] | 0.6 | 3 | 1040 |
| CC(C)c1c(-c2ccc3nncn3c2)[nH]c2ccc(C3CCN(C4CCOCC4)CC3)cc12 [Example 64, 6-(3-isopropyl-5-(1-(tetrahydro-2H-pyran-4-yl)piperidin-4-yl)-1H-indol-2-yl)-[1,2,4]triazolo[4,3-a]pyridine] | 24.7 | 147 | 677 |
| Cc1cc(-c2[nH]c3ccc(C4CCN(CC(C)(C)O)CC4)cc3c2C(C)C)cn2cnnc12 [Example 58, 1-(4-(3-isopropyl-2-(8-methyl-[1,2,4]triazolo[4,3-a]pyridin-6-yl)-1H-indol-5-yl)piperidin-1-yl)-2-methylpropan-2-ol] | 0.8 | 0.9 | 1750 |
| Cc1cc(-c2[nH]c3ccc(C4CCN(CCS(C)(=O)=O)CC4)cc3c2C(C)C)cn2cnnc12 [Example 35, 6-(3-isopropyl-5-(1-(2-(methylsulfonyl)ethyl)piperidin-4-yl)-1H-indol-2-yl)-8-methyl-[1,2,4] triazolo[4,3-a]pyridine] | 0.7 | 3 | 5840 |
| Cc1c(-c2[nH]c3ccc(C4CCN(CC(C)(C)O)CC4)cc3c2C(C)C)cn2cnnc2c1C [Example 60, 1-(4-(2-(7,8-dimethyl-[1,2,4]triazolo[4,3-a]pyridin-6-yl)-3-isopropyl-1H-indol-5-yl)piperidin-1-yl)-2-methylpropan-2-ol] | 1.7 | 4.3 | 2900 |
| Cc1cc2nncn2cc1-c1[nH]c2ccc(C3CCN(C4CCOCC4)CC3)cc2c1C(C)C [Example 68, 6-(3-isopropyl-5-(1-(tetrahydro-2H-pyran-4-yl)piperidin-4-yl)-1H-indol-2-yl)-7-methyl-[1,2,4]triazolo[4,3-a] pyridine] | 20.7 | 139 | 1250 |
| Cc1cc(-c2[nH]c3ccc(C4CCN(C5CCOCC5)CC4)cc3c2C(C)C)c(C)n2cnnc12 [Example 77, 6-(3-isopropyl-5-(1-(tetrahydro-2H-pyran-4-yl)piperidin-4-yl)-1H-indol-2-yl)-5,8-dimethyl-[1,2,4]triazolo[4,3-a]pyridine] | 55.9 | 3.6 | 4190 |
| Cc1cc(-c2[nH]c3ccc(C4CCN(Cc5ncn(C)n5)CC4)cc3c2C(C)C)cn2c(C)nnc12 [Example 33, 6-(3-isopropyl-5-(1-((1-methyl-1H-1,2,4-triazol-3-yl)methyl)piperidin-4-yl)-1H-indol-2-yl)-3,8-dimethyl-[1,2,4]triazolo[4,3-a]pyridine] | 29.6 | 7.9 | 5160 |
| Cc1c(-c2[nH]c3ccc(C4CCN(C(C)C)CC4)cc3c2C(C)C)cn2cnnc2c1C [Example 99, 6-(3-isopropyl-5-(1-isopropylpiperidin-4-yl)-1H-indol-2-yl)-7,8-dimethyl-[1,2,4]triazolo [4,3-a]pyridine] | 1.7 | 8.3 | 2220 |
| Cc1nnc2ccc(-c3[nH]c4ccc(C5CCN(CC(=O)N(C)C)CC5)cc4c3C(C)C)cn12 [Example 19, 2-(4-(3-isopropyl-2-(3-methyl-[1,2,4]triazolo[4,3-a]pyridin-6-yl)-1H-indol-5-yl)piperidin-1-yl)-N,N-dimethylacetamide] | 48.6 | 29.6 | 1660 |
| COc1cc(-c2[nH]c3ccc(C4CCN(C(C)C)CC4)cc3c2C(C)C)cn2cnnc12 [Example 97, 6-(3-isopropyl-5-(1-isopropylpiperidin-4-yl)-1H-indol-2-yl)-8-methoxy-[1,2,4]triazolo[4,3-a]pyridine] | 2.3 | 56.1 | 768 |
| Cc1c(-c2[nH]c3ccc(C4CCN(Cc5ncn(C)n5)CC4)cc3c2C(C)C)ccc2nncn12 [Example 26, 6-(3-isopropyl-5-(1-((1-methyl-1H-1,2,4-triazol-3-yl)methyl)piperidin-4-yl)-1H-indol-2-yl)-5-methyl-[1,2,4]triazolo[4,3-a]pyridine] | 117 | 27.9 | 12400 |
| Cc1c(-c2[nH]c3ccc(C4CCN(C5CCOCC5)CC4)cc3c2C(C)C)cn2cnnc2c1Cl [Example 81, 8-chloro-6-(3-isopropyl-5-(1-(tetrahydro-2H-pyran-4-yl)piperidin-4-yl)-1H-indol-2-yl)-7-methyl-[1,2,4]triazolo[4,3-a]pyridine] | 2.5 | 10.8 | 2260 |
